Measured values from patent US20180042918A1, “RESPIRATORY INFECTION TREATING AGENT” (KYORIN PHARMACEUTICAL CO., LTD., priority 2015, published 2018).
In brackets after ≈: the same amount, converted by molar mass. Read-outs that look alike come from different tables or passages of the source.

Columns and labels:
[1] = system: S. aureus MS5935 gyrA mutant; experiment: microbe, parasite or virus in culture; type: cell-based; details: Staphylococcus aureus
[2] = AUC and Cmax, plasma concentration by HPLC after repeated oral doses; type: in vivo; details: male, human, Japanese healthy adult males, oral 75 mg once daily for seven days, day 7, plasma
Experimental: Six Japanese healthy adult males received oral doses of 75 mg compound D once daily for seven consecutive days. The plasma concentration of compound D was measured by the HPLC method, and the pharmacokinetic parameters were calculated.

E. coli ATCC25922 = experiment: microbe, parasite or virus in culture; type: cell-based; details: Escherichia coli
S. pneumoniae GF9821 = experiment: microbe, parasite or virus in culture; type: cell-based; details: Streptococcus pneumoniae
[3] = Clinical efficacy (cure rate) in patients with community-acquired pneumonia; type: in vivo, human; details: oral 75 mg once daily for 7 days, seven days after treatment completion
Experimental: We investigated efficacy of compound D for the patients with community-acquired pneumonia. 50 patients with community-acquired pneumonia were orally administered 75 mg of compound D once daily for 7 days. The clinical efficacy (cure rate) was evaluated at seven days after treatment completion. The clinical trial was performed in accordance with a part of evaluation on patients with community-acquired pneumonia (pp. 34 to 38) in “general guidelines for the evaluation of new antimicrobial agents for the treatment of respiratory tract infections (second version).”

S. pneumoniae KY-9 = experiment: Number of bacteria in the lung, mouse lung infection; type: in vivo, Streptococcus pneumoniae
Experimental: S. pneumoniae KY-9 was inoculated at 7.4×10^5 CFU/mouse via the respiratory tract into the lung in a mouse in which cyclophosphamide had been administrated. 2.9 to 3.1 hours, 17.3 to 19.1 hours, and 24.4 to 26.1 hours after the inoculation, the drug (the compound D, levofloxacin, or garenoxacin) was subcutaneously administrated (SC) or orally administrated (PO) three times in total. The number of bacteria in the lung 16.5 to 17.0 hours after the final administration was measured.
“*” described in FIGS. 1 and 2 means that a significant difference of p<0.05 in a Vehicle group was observed, and “**” means that a significant difference of p<0.001 in the Vehicle group was observed (Dunnett's multiple comparison test, parametric).
Here, CFU is an abbreviation of Colony Forming Unit, and represents the unit of number of bacteria. Log CFU/Lung means the number of viable bacteria in the lung. Log CFU/Lung was determined as follows. The lung obtained from the mouse was homogenated to obtain a bacterial culture. The bacterial culture was appropriately diluted, applied to an agar plate medium, and cultured. Log CFU/Lung was determined on the basis of the number of developed colonies.

[4] = Concentration in tissue (human, oral administration): epithelial lining fluid, alveolar macrophages, plasma; type: in vivo; details: male, oral single dose 75 mg; for Kp: over 1 to 24 hours
Experimental: Concentration of compound D in lung tissue (epithelial lining fluid and alveolar macrophages) and plasma was measured to investigate intrapulmonary distribution of compound D after oral single administration of this drug, with reference to a method in Document (Antimicrobial Agents and Chemotherapy, February 2010, pp. 866-870).
The measurement was as follows. Healthy adult male volunteers were given oral single dose of compound D (75 mg). The bronchoalveolar lavage fluid and blood samples were collected from the subjects at 1, 2, 4, 6, and 24 hours after the administration. The collection of the fluid and blood samples was carried out at each time point for six subjects. The bronchoalveolar lavage fluid was centrifuged to separate from epithelial lining fluid and alveolar macrophages for measurement of the drug concentration. The concentrations of compound D in lung tissue and plasma were measured by LC/MS/MS.

[5] = 400 mg, patients with bacterial pneumonia; cited from earlier work
[6] = human, 2.5 to 3.5 hours after administration; cited from earlier work
[7] = consecutive administration, daily dose of 400 mg; cited from earlier work
[8] = alveolar macrophages, read-out: TISSUE DISTRIBUTION RATIO, ALVEOLAR MACROPHAGES
[9] = epithelial lining fluid, read-out: TISSUE DISTRIBUTION RATIO, ALVEOLAR EPITHELIAL LINING FLUID

COc1c(N2C[C@H](CNC3CC3)[C@H](F)C2)c(F)cc2c(=O)c(C(=O)O)cn(CCF)c12.Cl [Compound D, 7-[(3S,4S)-3-{(cyclopropylamino)methyl}-4-fluoropyrrolidine-1-yl]-6-fluoro-1-(2-fluoroethyl)-8-methoxy-4-oxo-1,4-dihydroquinoline-3-carboxylic acid hydrochloride]
MIC [1]: 0.03 µg/mL
AUC ([2]; read-out: area under the curve (AUC)): 20600 ng·h/mL
Cmax ([2]; read-out: maximum drug concentration (Cmax)): 998 ng/mL
MIC (E. coli ATCC25922): 0.06 µg/mL
MIC (S. pneumoniae GF9821): 0.125 µg/mL
clinical efficacy (cure rate) [3]: 90.0%
therapeutic effect, number of bacteria in the lung (S. pneumoniae KY-9; oral administration): excellent as compared with garenoxacin and levofloxacin
decrease in number of bacteria in the lung versus Vehicle (S. pneumoniae KY-9; subcutaneous, 6.3 mg and 25 mg/kg): significant dose-dependent decrease
difference in number of viable bacteria in the lung, compound D versus garenoxacin (S. pneumoniae KY-9; subcutaneous, 25 mg/kg groups): about 1,000 times
Kp at 1 h [4, 8]: 31.9
Kp at 2 h [4, 8]: 18.5
Kp at 4 h [4, 8]: 21.9
Kp at 6 h [4, 8]: 56.4
Kp at 24 h [4, 8]: 38
Kp ([4]; alveolar macrophages, read-out: tissue distribution ratio in alveolar macrophages, range): 18.5 to 56.4
Kp at 1 h [4, 9]: 22.5
Kp at 2 h [4, 9]: 18.4
Kp at 4 h [4, 9]: 16.5
Kp at 6 h [4, 9]: 15.2
Kp at 24 h [4, 9]: 15
Kp ([4]; epithelial lining fluid, read-out: tissue distribution ratio in epithelial lining fluid, range): 15 to 22.5

C[C@H]1NCc2cc(-c3ccc4c(=O)c(C(=O)O)cn(C5CC5)c4c3OC(F)F)ccc21 [GRNX, garenoxacin]
clinical efficacy rate [5]: 94.9%
tissue distribution ratio in the alveolar macrophages [6]: 11.15±8.16
tissue distribution ratio in the epithelial lining fluid [6]: 0.95±0.41
MIC [1]: 0.06 µg/mL (≈ 0.141 µM)
MIC (E. coli ATCC25922): 0.03 µg/mL (≈ 0.0704 µM)
MIC (S. pneumoniae GF9821): 0.25 µg/mL (≈ 0.586 µM)
AUC [7]: 110900 ng·h/mL
Cmax [7]: 11060 ng/mL
significant decrease in number of bacteria in the lung versus Vehicle (S. pneumoniae KY-9; subcutaneous, 6.3 mg/kg): not observed
significant decrease in number of bacteria in the lung versus Vehicle (S. pneumoniae KY-9; subcutaneous, 25 mg/kg): a significant decrease in number of bacteria in the lung was observed
